Data published in patent publication EP0700912A1, “QUINOLONE DERIVATIVE OR SALT THEREOF, AND ANTIBACTERIAL CONTAINING THE SAME” (priority 1993, dated 1994).
In brackets after ≈: the same amount, converted by molar mass.

Assays:
[1] = Photo-toxicity: ear abnormality after intravenous dosing and ultraviolet exposure; type: in vivo; details: 40 mg/kg/10 mℓ intravenously, female ICR mouse, headed 0 hour; for ranking points: ultraviolet rays 4 hours, 0 = no abnormality, 1 = slight erythema, 2 = medium erythema, 3 = heavy erythema or edema; for Number of toxicity-developed cases: ultraviolet rays 320-400 nm, 1.8 mW/cm²/sec, 4 hours
Description: After 40 mg/kg/10 mℓ of the test compound were administered intravenously to a female ICR mouse (5-6 week old), it was exposed to ultraviolet rays (320-400 nm, 1.8 mW/cm²/sec) for 4 hours. […] The abnormality on the ears was ranked as 0 point in the case of no abnormality, 1 point in the case of slight erythema, 2 points in the case of medium erythema, and 3 points in the case of heavy erythema or edema.

[2] = tested on: E.coli NIH JC-2 (IFO*12734); assay: Antibacterial activities: minimum inhibitory concentration (standard method of Japan Society of Chemotherapy); type: cell-based; details: Escherichia coli
Description: (§1) The minimum inhibitory concentration [MIC: µg/mℓ] was measured in accordance with the standard method of Japan Society of Chemotherapy [CHEMOTHERAPY, 29, No.1, 76-79(1981)]. The results are shown in Table 13 in which compound numbers are the same as those synthesized in the above Examples.

P.aeruginosa (IFO 3445) = assay: as above; type: cell-based; details: Pseudomonas aeruginosa, IFO3445
Description: as §1

[3] = tested on: S.aureus 209P (IFO 12732); assay: as above; type: cell-based; details: Staphylococcus aureus
Description: as §1

[4] = Absorption and excretion: recovery in bile after oral administration; type: in vivo; details: rats with polyethylene tube in choledoch, bile collected over 24 hours
Description: The absorption and excretion of the orallyadministered invention compound were tested by measuring the recovery in urine and that in bile according to the following method.
After the test compound was prepared in a similar manner to the measurement of the recovery in urine, it was orally administered to the rats who had had their choledoch inserted with a polyethylene tube. The bile was collected over 24 hours. The concentration of the test compound in the bile was examined in the similar manner to the above and the excretion rate in the bile for 24 hours was determined.

Compound	MIC [2]	MIC (P.aeruginosa (IFO 3445))	MIC [3]	ranking points ([1]; first column)	ranking points ([1]; second column)	ranking points ([1]; third column)	Number of toxicity-developed cases ([1]; first column)	Number of toxicity-developed cases ([1]; second column)	Number of toxicity-developed cases ([1]; third column)	Excretion rate (24 hrs, %) in bile [4]
CCn1cc(C(=O)O)c(=O)c2cc(F)c(N3CCNCC3)nc21 [Enoxacin, reference compound]	–	–	–	1.0	0.4	0.3	–	–	–	–
Cl.N[C@H]1CCN(c2cc3c(cc2F)c(=O)c(C(=O)O)cn3-c2ccon2)C1 [Compound No. 4, 7-{3(S)-aminopyrrolidin-1-yl}-6-fluoro-1-(isoxazol-3-yl)-1,4-dihydro-4-oxoquinoline-3-carboxylic acid hydrochloride]	0.025 µg/mL	0.1 µg/mL	0.1 µg/mL	0	0	0	0/6	0/6	0/6	–
CCn1cc(C(=O)O)c(=O)c2cc(F)c(N3CCNCC3)cc21 [Norfloxacin, reference compound]	–	–	–	1.0	1.0	0	–	–	–	–
C[C@H]1CN(c2cc3c(cc2F)c(=O)c(C(=O)O)cn3-c2ccon2)C[C@H]1N [Compound No. 5]	0.025 µg/mL (≈ 0.0671 µM)	0.2 µg/mL (≈ 0.537 µM)	0.1 µg/mL (≈ 0.269 µM)	0	0	0	0/6	0/6	0/6	1.2%

Continued, in another order:

MIC [2]	MIC (P.aeruginosa (IFO 3445))	MIC [3]	Compound	ranking points ([1]; first column)	ranking points ([1]; second column)	ranking points ([1]; third column)	Number of toxicity-developed cases ([1]; first column)	Number of toxicity-developed cases ([1]; second column)	Number of toxicity-developed cases ([1]; third column)	Excretion rate (24 hrs, %) in bile [4]
0.1 µg/mL (≈ 0.277 µM)	1.56 µg/mL (≈ 4.32 µM)	0.39 µg/mL (≈ 1.08 µM)	CC1COc2c(N3CCN(C)CC3)c(F)cc3c(=O)c(C(=O)O)cn1c23 (stereo not shown) [Ofloxacin, reference compound]	–	–	–	–	–	–	–
0.013 µg/mL (≈ 0.0348 µM)	0.1 µg/mL (≈ 0.268 µM)	0.05 µg/mL (≈ 0.134 µM)	Nc1c(F)c(N2CC[C@H](N)C2)cc2c1c(=O)c(C(=O)O)cn2-c1ccon1 [compound 57]	–	–	–	–	–	–	–
0.05 µg/mL (≈ 0.127 µM)	0.2 µg/mL (≈ 0.509 µM)	0.2 µg/mL (≈ 0.509 µM)	N[C@H]1CCN(c2cc3c(c(Cl)c2F)c(=O)c(C(=O)O)cn3-c2ccon2)C1 [compound 49]	–	–	–	–	–	–	–
0.013 µg/mL (≈ 0.0336 µM)	0.2 µg/mL (≈ 0.516 µM)	0.05 µg/mL (≈ 0.129 µM)	C[C@H]1CN(c2cc3c(c(N)c2F)c(=O)c(C(=O)O)cn3-c2ccon2)C[C@H]1N [compound 58]	–	–	–	–	–	–	–
